US6924311B2, “Methods for affecting various diseases utilizing LXR compounds” (X-Ceptor Therapeutics, Inc., priority 2001, dated 2005)

Key:
ABCA1 mRNA = experiment: Intestinal mucosa ABCA1 mRNA by quantitative PCR in treated mice; type: in vivo; settings: daily oral 7 days
Experimental: The LXR pan-agonist-dependent inhibition of cholesterol absorption is believed to result from the ability of LXRs to induce the expression of ATP binding cassette transporters such as ABCA1 in the intestine. To examine the contributions of LXRα and LXRβ to intestinal gene expression and dietary cholesterol absorption, Compound 1 was administered to wildtype, LXRα−/−, LXRβ−/− and LXRαβ−/− mice for seven days by daily oral gavage in a sesame oil/ethanol vehicle via a 1 cc syringe fitted with a 20G disposable feeding needle. Compound was solvated in ethanol (5% final volume) and brought up to final volume with sesame oil (Sigma, St. Louis, Mo.). Three hours after the final dose (day 7) animals were sacrificed, intestines were harvested, and intestinal enterocytes were isolated by gently scraping the mucosa layer away from the rest of the tissue. Total intestinal mucosa RNA was isolated using RNeasy kits (QIAGEN Inc.) according to the supplier's total RNA isolation procedure. The RNA samples were further treated with deoxyribonuclease I to eliminate contaminating genomic DNA. ABCA1 mRNA levels were than analyzed by real-time based quantitative PCR using Perkin Elmer ABI Prism 7700 and Sequence Detection System software (Perkin Elmer). […] No induction is observed in LXRαβ−/− mice. Thus either LXRα or LXRβ alone is sufficient to induce ABCA1 in the intestine and inhibit the absorption of dietary cholesterol.

ABCG1 mRNA = ABCG1 mRNA induction in cultured peritoneal macrophages; type: cell-based, mice; settings: 24 hours
Excerpt: The individual contributions of both receptors to macrophage gene expression were examined by first measuring the amount of mRNA encoding LXRα and LXRβ in thioglycolate-elicited peritoneal macrophages obtained from mixed wildtype mice. Thioglycolate-elicited peritoneal macrophages were isolated from mice 4 days after peritoneal injection of thioglycolate media. Peritoneal macrophages were harvested by lavage of the peritoneum with phosphate buffered saline (PBS), cells were washed, transferred to 60 mm culture plates and incubated at 37° C. in RPMI 1640 media (Life Technologies) containing 10% FBS, 2 mmol/L glutamine, 100 μg/mL streptomycin and 100 IU penicillin (Life Technologies). After 5 hours at 37° C., cells were washed 5 times with PBS to remove non-adherent cells and adherent cells were further incubated in RPMI 1640 media supplemented with 10% FBS for 24 hours. To determine the mRNA levels of LXRα and LXRβ, after 24 hours total RNA was isolated from cultured macrophages using RNeasy kits (QIAGEN Inc.) according to the supplier's total RNA isolation procedure. The RNA samples were further treated with deoxyribonuclease I to eliminate contaminating genomic DNA. LXRα and LXRβ mRNA levels were than analyzed by real-time based quantitative PCR using Perkin Elmer ABI Prism 7700 and Sequence Detection System software (Perkin Elmer). […] To further examine LXR-dependent gene expression in macrophages, peritoneal macrophages were isolated as described above from mixed wildtype, LXRα−/− (C57BL/6), LXRβ−/−, and LXRαβ−/− mice. After removal of non-adherent cells, the remaining macrophages were than cultured in either the absence or presence of LXR pan-agonist (1.0 μM Compound 1) for 24 hours. At the end of the experiment total RNA was isolated from cultured macrophages using RNeasy kits (QIAGEN Inc.) according to the supplier's total RNA isolation procedure. RNA samples were further treated with deoxyribonuclease I to eliminate contaminating genomic DNA before use. The LXR agonist-dependent induction of the ABCA1 and ABCG1 mRNAs were than analyzed by real-time based quantitative PCR using Perkin Elmer ABI Prism 7700 and Sequence Detection System software (Perkin Elmer). ABCA1 and ABCG1 function as efflux pumps that mediate the transfer of intracellular cholesterol out of cells to HDL particles, a process referred to as reverse cholesterol transport. […] Elimination of LXRα activity (LXRα−/−) has no effect on the agonist-dependent response. In contrast, elimination of LXRβ activity (LXRβ−/−) reduces the agonist-dependent induction of ABCA1 by 82% and the ABCG1 induction by 50%. […] Thus LXRβ alone is sufficient to allow the maximum induction of ABCA1 and ABCG1 in peritoneal macrophages.

peritoneal macrophages = experiment: ApoA1-dependent cholesterol efflux assay (reverse cholesterol transport) in peritoneal macrophages; type: cell-based, mice; settings: 1.0 μM
Excerpt: The individual contributions of both receptors to macrophage gene expression were examined by first measuring the amount of mRNA encoding LXRα and LXRβ in thioglycolate-elicited peritoneal macrophages obtained from mixed wildtype mice. Thioglycolate-elicited peritoneal macrophages were isolated from mice 4 days after peritoneal injection of thioglycolate media. Peritoneal macrophages were harvested by lavage of the peritoneum with phosphate buffered saline (PBS), cells were washed, transferred to 60 mm culture plates and incubated at 37° C. in RPMI 1640 media (Life Technologies) containing 10% FBS, 2 mmol/L glutamine, 100 μg/mL streptomycin and 100 IU penicillin (Life Technologies). After 5 hours at 37° C., cells were washed 5 times with PBS to remove non-adherent cells and adherent cells were further incubated in RPMI 1640 media supplemented with 10% FBS for 24 hours. To determine the mRNA levels of LXRα and LXRβ, after 24 hours total RNA was isolated from cultured macrophages using RNeasy kits (QIAGEN Inc.) according to the supplier's total RNA isolation procedure. The RNA samples were further treated with deoxyribonuclease I to eliminate contaminating genomic DNA. LXRα and LXRβ mRNA levels were than analyzed by real-time based quantitative PCR using Perkin Elmer ABI Prism 7700 and Sequence Detection System software (Perkin Elmer). […] Since ABCA1 is involved in mediating reverse cholesterol transport, peritoneal macrophages isolated as described above and cultured for 24 hours in the absence or presence of LXR agonist (1.0 μM Compound 1) were examined in a cholesterol efflux assay which measures reverse cholesterol transport in vitro. Mouse peritoneal macrophages isolated as described above from wildtype (mixed and C57BL/6), LXRα−/− (C57BL/6), LXRβ−/−, and LXRαβ−/− mice were cultured in 96 well plates (5×10^4 cells/well) at 37° C. After 24 hours, cells were labeled for 48 hours with 0.2 μCi/ml ^14C-cholesterol in RPMI 1640 medium with 1% FBS. Following the labeling period, ^14C-cholesterol was removed and the cells were cultured for 24 hours in serum free RPMI 1640 media in the presence or absence of 10 μg/ml apolipoprotein A (ApoA1). In this assay ApoA1 acts as a cholesterol acceptor and mimics the cholesterol-accepting function performed by HDL particles in vivo. Following this incubation, the media is removed, cells are washed and than lysed with 0.2 M sodium hydroxide. To determine ApoA1-dependent cholesterol efflux, the amount of ^14C-cholesterol present in the media is divided by the total counts (media+cell lysate) and the value determined in the absence of ApoA is subtracted from the value determined in the presence of ApoA. […] No effect is observed upon elimination of LXRα alone.

ABCA1 mRNA fold induction in the intestine (ABCA1 mRNA; LXRα−/− mice, depending on the strain): 7-14 fold | ABCA1 mRNA fold induction in the intestine (ABCA1 mRNA; LXRβ−/− mice): 9 fold | ABCA1 mRNA fold induction in the intestine (ABCA1 mRNA; wildtype mice, depending on the strain): 14-29 fold
Structure (SMILES): O=S(=O)(c1ccccc1)N(CC(F)(F)F)c1ccc(C(O)(C(F)(F)F)C(F)(F)F)cc1 [Compound 1, N-(2,2,2-trifluoroethyl)-N-[4-(2,2,2-trifluoro-1-hydroxy-1-trifluoromethylethyl)-phenyl]-benzene sulfonamide]
ABCA1 mRNA induction in the intestine (ABCA1 mRNA; LXRαβ−/− mice): No induction | agonist-dependent ABCG1 mRNA induction (ABCG1 mRNA; LXRαβ−/− macrophages, 1.0 μM): completely blocks the response | agonist-dependent ABCG1 mRNA induction (ABCG1 mRNA; LXRα−/− macrophages, 1.0 μM): no effect | reduction of agonist-dependent induction of ABCG1 (ABCG1 mRNA; LXRβ−/− macrophages versus wildtype, 1.0 μM): 50% | fold induction at 1 µM (ABCG1 mRNA; Mus musculus, Macrophage, wildtype macrophages): 8 | reverse cholesterol transport (cholesterol efflux) (peritoneal macrophages; LXRαβ−/− macrophages): further reduced | reverse cholesterol transport (cholesterol efflux) (peritoneal macrophages; LXRα−/− (C57BL/6) macrophages): No effect | reverse cholesterol transport (cholesterol efflux) (peritoneal macrophages; LXRβ−/− macrophages): significantly reduced | reverse cholesterol transport (cholesterol efflux) (peritoneal macrophages; wildtype (mixed and C57BL/6) macrophages): stimulates reverse cholesterol transport
